Data as given in patent publication US7615543B2, “Treatment and prevention of tissue damage” (Pentraxin Therapeutics Limited, priority 2002, dated 2009).
Like-named read-outs stand apart in the source and are kept apart here. One block for each compound: values may come before it.

Tests used:
[1] = molecular target: T1, SAP (Homo sapiens, UniProt P02743); assay: Isothermal calorimetry of CPHPC with SAP; conditions: read-out: affinity of binding, SAP and CPHPC
Excerpt: This phenomenon contrasts sharply with the behaviour in vivo of the closely related molecule, serum amyloid P component (SAP), the other member of the human pentraxin protein family. SAP shares with CRP the homopentameric structure consisting of 5 identical protomers non-covalently associated in a disc like configuration, with a single calcium-dependent ligand binding site on one face of each subunit. […] The handling of aggregated human SAP in vivo may thus differ markedly from that of aggregated CRP. […] Thus compounds that are both bound by CRP with higher affinity and that cross-link it in more avid stable complexes, may cause accelerated clearance from the plasma in vivo.

[2] = molecular target: T2, mouse SAP (Mus musculus, UniProt P12246); conditions: CPHPC administered to mice; cited from earlier work
T2 construct: host or cells: mice, endogenous circulating SAP
T2 sequence (P12246 21-224): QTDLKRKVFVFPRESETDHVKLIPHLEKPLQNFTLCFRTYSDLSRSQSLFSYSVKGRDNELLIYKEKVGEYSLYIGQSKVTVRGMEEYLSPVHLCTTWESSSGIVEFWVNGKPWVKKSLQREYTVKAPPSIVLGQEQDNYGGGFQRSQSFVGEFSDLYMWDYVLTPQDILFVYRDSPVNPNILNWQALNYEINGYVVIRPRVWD

[3] = molecular target: T1, SAP; design: human SAP expressed in human SAP transgenic mice; host or cells: human SAP transgenic mice; circulation in vivo; conditions: cited from earlier work
[4] = molecular target: T3, CRP (Homo sapiens, UniProt P02741); assay: Gel filtration (molecular sieve) chromatography of CRP molecular assembly; type: binding; conditions: 10 fold molar excess of drug
T3 sequence (P02741 19-224): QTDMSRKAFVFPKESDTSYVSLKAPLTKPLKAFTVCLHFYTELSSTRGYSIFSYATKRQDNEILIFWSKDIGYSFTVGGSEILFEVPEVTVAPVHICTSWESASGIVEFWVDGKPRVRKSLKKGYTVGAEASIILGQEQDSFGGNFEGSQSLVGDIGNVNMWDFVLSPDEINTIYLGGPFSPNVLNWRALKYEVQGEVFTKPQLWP
Excerpt: The ligand binding sites on each of the 5 protomers in the CRP molecule are all on the same face of the disc-like pentameric assembly of the native protein.

[5] = molecular target: T3, CRP

T1 sequence (P02743 20-223): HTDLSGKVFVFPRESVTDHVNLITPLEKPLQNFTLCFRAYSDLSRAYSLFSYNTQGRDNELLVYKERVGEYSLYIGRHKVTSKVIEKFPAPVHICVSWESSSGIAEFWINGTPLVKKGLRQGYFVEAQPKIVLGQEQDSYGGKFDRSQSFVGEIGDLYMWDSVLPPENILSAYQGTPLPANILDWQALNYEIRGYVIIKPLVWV

Kd [1]: 10 nM
Compound: O=C(O)[C@H]1CCCN1C(=O)CCCCC(=O)N1CCC[C@@H]1C(=O)O [CPHPC, (R)-1-[6-[(R)-2-Carboxy-pyrrolidin-1-yl]-6-oxo-hexanoyl]pyrrolidine-2-carboxylic acid]
effect on clearance of mouse SAP in vivo [2]: does not accelerate clearance
effect on human SAP in vivo ([3]; human SAP transgenic mice): dramatically clears
clearance of SAP-CPHPC complexes from the circulation in vivo ([3]; pairs of SAP molecules cross linked by CPHPC): very rapidly cleared

Molecular assembly of CRP [4]: Single pentamers
Compound: C[N+](C)(C)CCOP(=O)([O-])O [phosphocholine]

reduction of MIRA CRP concentration ([5]; CRP 100 mg/l, SAP 100 mg/l (~4 μM), DPHPC 400 μM): 58%
reduction of MIRA CRP concentration ([5]; CRP 100 mg/l, SAP 100 mg/l (~4 μM), DPHPC 2 mM): 89%
reduction of MIRA CRP concentration ([5]; CRP 100 mg/l, SAP 100 mg/l (~4 μM), DPHPC 4 mM): 99%
effect on apparent CRP concentration in MIRA assay ([5]; added to isolated pure CRP, no SAP): slightly reduces
reduction of MIRA CRP value ([5]; pure CRP 100 mg/l (~4 μM), DPHPC 400 μM, no SAP): no effect
reduction of MIRA CRP value ([5]; pure CRP 100 mg/l (~4 μM), DPHPC 4 mM, no SAP): 91%
reduction of MIRA CRP value ([5]; second experiment: ~4 μM CRP, 1 mM DPHPC, SAP 400 nM): 61%
reduction of MIRA CRP value ([5]; second experiment: ~4 μM CRP, 1 mM DPHPC, SAP 800 nM): 61%
reduction of MIRA CRP value ([5]; second experiment: ~4 μM CRP, 1 mM DPHPC, SAP 2 μM): 73%
reduction of MIRA CRP value ([5]; second experiment: ~4 μM CRP, 1 mM DPHPC, SAP about 4 μM): 85%
reduction of MIRA CRP concentration ([5]; second experiment: ~4 μM CRP, 1 mM DPHPC, no SAP): 62%
reduction of MIRA CRP value ([5]; whole serum, SAP and CRP both ~4 μM, 4 mM DPHPC): 44%
enhancement by SAP of the effect of DPHPC alone in MIRA ([5]; whole serum, SAP concentrations lower than 2 μM, 4 mM DPHPC): no enhancement
reduction of MIRA CRP value ([5]; whole serum, ~4 μM CRP, 2 μM SAP, 4 mM DPHPC): 29%
reduction of CRP detectable in MIRA assay ([5]; whole serum, ~4 μM CRP, 4 mM DPHPC, no added SAP): 19%
Compound: D-Pro-hexanoyl-phosphocholine [DPHPC]
